Here are results for 20 molecules from PMC1281266, “Impact of Polychlorinated Biphenyls Contamination on Estrogenic Activity in Human Male Serum” (Environmental Health Perspectives, 2005).

The test system of one series is T47D.Luc cells. Put plainly: Neutral red uptake cytotoxicity assay, 24-hr exposure. It counts as cell-based, human. As to conditions: lowest concentration causing a significant decrease of cell viability; 24-hr exposure Neutral Red uptake. As to the method: (§1) We determined estrogenic activities of 17 prevalent PCB congeners using the ER-CALUX bioassay (BioDetection Systems) using the human breast carcinoma T47D.Luc cell line, stably transfected with pEREtataLuc construct ([Legler et al. 1999]; [Machala et al. 2004]). ER-mediated activity was also determined in the cells treated with either total serum hexane/diethyl ether extracts or with a fraction of POPs obtained by a consequent sulfuric acid/silica fractionation. […] We determined cytotoxicity of extracts or individual PCBs by a neutral red uptake assay after a 24-hr exposure.

In the next series the test system is BG1LucE2 cells. Also on record: method as in Rogers and Denison 2000. Particulars: 10 μM concentrations; ref Rogers and Denison 2000; cited from earlier work.
The next series addresses T1, AhR (Rattus norvegicus, UniProt P41738).
T1 construct: a luciferase reporter gene assay (DR-CALUX; BioDetection Systems, Amsterdam, the Netherlands) as described previously; rat hepatoma H4IIE.Luc by own knowledge of the DR-CALUX assay
T1 sequence (P41738 10-853): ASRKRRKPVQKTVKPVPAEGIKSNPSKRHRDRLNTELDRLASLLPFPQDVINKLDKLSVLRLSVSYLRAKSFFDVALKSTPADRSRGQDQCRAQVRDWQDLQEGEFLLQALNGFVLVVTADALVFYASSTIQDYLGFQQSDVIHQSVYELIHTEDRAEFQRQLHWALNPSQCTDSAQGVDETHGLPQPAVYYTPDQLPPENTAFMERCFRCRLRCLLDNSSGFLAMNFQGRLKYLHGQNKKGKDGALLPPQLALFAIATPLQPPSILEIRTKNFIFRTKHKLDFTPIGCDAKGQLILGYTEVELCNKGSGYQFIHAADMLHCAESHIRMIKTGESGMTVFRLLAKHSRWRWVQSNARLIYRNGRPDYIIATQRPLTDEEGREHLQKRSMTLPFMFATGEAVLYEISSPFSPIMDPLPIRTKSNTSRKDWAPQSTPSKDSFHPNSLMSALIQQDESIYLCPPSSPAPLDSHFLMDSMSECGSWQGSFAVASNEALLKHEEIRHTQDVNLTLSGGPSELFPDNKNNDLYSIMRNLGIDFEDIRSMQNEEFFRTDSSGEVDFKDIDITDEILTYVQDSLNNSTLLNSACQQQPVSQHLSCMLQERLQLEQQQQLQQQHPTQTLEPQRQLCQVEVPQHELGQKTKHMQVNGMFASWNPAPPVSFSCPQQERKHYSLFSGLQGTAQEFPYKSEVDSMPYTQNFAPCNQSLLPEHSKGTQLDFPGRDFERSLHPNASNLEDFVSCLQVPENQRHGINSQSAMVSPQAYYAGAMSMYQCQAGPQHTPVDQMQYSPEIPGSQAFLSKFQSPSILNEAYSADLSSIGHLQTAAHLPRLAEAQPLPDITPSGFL
The series is described as follows: DR-CALUX luciferase reporter gene assay, dioxin-like activity. In kind it is cell-based. Particulars: data not shown. How it is done: We determined the levels of cytochrome P450 (CYP) 1A1 and CYP1B1 mRNA in human peripheral lymphocytes by RNA extraction and a quantitative reverse-transcriptase-polymerase chain reaction (RT-PCR) method using TaqMan technology ([Canton et al. 2003]; [van Duursen et al. 2005]). The in vitro potencies of POPs present in serum to activate AhR were measured in sulfuric acid/silica-treated extracts by a luciferase reporter gene assay (DR-CALUX; BioDetection Systems, Amsterdam, the Netherlands) as described previously ([Murk et al. 1996]).
(In general: A reporter such as luciferase makes a cellular process visible.)

For series [1], the target named is T2, estrogen receptor (ER) (Homo sapiens, UniProt P03372).
T2 construct: using the human breast carcinoma T47D.Luc cell line, stably transfected with pEREtataLuc construct; host or cells: T47D.Luc (human breast carcinoma, stably transfected with the pEREtataLuc reporter)
Put plainly: ER-CALUX bioassay, estrogenic (ER-mediated) activity: induction of luciferase in T47D.Luc cells. It counts as cell-based. Particulars: for ER-mediated activity (induction of ER-dependent luciferase activity), in words: individual congeners, micromolar concentrations, Figure 2A; for ER-activated activity IEF (induction equivalency factor): ratio between EC50 of E2 and the PCB concentration inducing the same level of luciferase activity.

Series [2] addresses T2, estrogen receptor (ER). The series is described as follows: ER-CALUX bioassay, antiestrogenicity: decrease in response to E2 in co-treated T47D.Luc cells. It counts as cell-based. Particulars: for Effect on E2-induced luciferase activity (antiestrogenicity), in words: 3 pM E2, T47D.Luc cells, Figure 3; for Effect of co-treatment on ER activation by E2, in words: co-treatment with 3 pM E2, Figure 2B. As to the method: as §1

Series [3] concerns MCF-7 cells. Also on record: method as in Arcaro et al. 1999. Particulars: ref Arcaro et al. 1999; cited from earlier work.
The test system of a further series is rat uterus. Details: method as in Arcaro et al. 1999. As to conditions: ref Arcaro et al. 1999; cited from earlier work.
In series [4] the test system is MCF-7 cells. Also on record: method as in Bonenfeld-Jorgensen et al. 2001. Particulars: ref Bonenfeld-Jorgensen et al. 2001; cited from earlier work.

Structures are written as SMILES. “Also recorded” adds a separate entry of the source.

With `Clc1cc(Cl)c(-c2c(Cl)c(Cl)cc(Cl)c2Cl)cc1Cl` [PCB 187, 2,2′,3,4′,5,5′,6-Heptachlorobiphenyl], the “Cytotoxicity LOEC” value with T47D.Luc cells worked out at 20 µM.
On the same count and under the same terms, under `Clc1ccc(-c2cc(Cl)c(Cl)cc2Cl)cc1Cl` [PCB 118, 2,3′,4,4′,5-Pentachlorobiphenyl] stands > 20 µM.
Regarding `Clc1ccc(Cl)c(-c2c(Cl)ccc(Cl)c2Cl)c1` [PCB 95, 2,2′,3,5′,6-pentachlorobiphenyl], the “ER-mediated (estrogenic) activity in BG1LucE2 cells” value (from here on “ER-mediated (estrogenic) activity”) in the series on BG1LucE2 cells is on record as “estrogenic”.
For `ClC(Cl)=C(c1ccc(Cl)cc1)c1ccc(Cl)cc1` [p,p′-DDE], the “Dioxin-like activity, in words” value on AhR is recorded as “no dioxin-like activity”. Moreover, the “Estrogenic activity, in words” value at estrogen receptor (ER) [1] (data not shown) is listed as “weak estrogenic”.
As for `Clc1ccc(-c2cc(Cl)c(Cl)c(Cl)c2Cl)cc1Cl` [PCB 156, 2,3,3′,4,4′,5-Hexachlorobiphenyl], on estrogen receptor (ER) [2], the “Antiestrogenicity IhEF (inhibitory equivalency factor)” value was “WI (key: NI: no significant induction/inhibition; WI: weak induction/inhibition (< 50% of estradiol maximum induction; < 50% decrease in induction of 3 pM E2))”. In addition, the “Antiestrogenicity IC50” value at estrogen receptor (ER) [2] (50% decrease in luciferase activity induced by 3 pM E2, T47D.Luc cells) is given as “WI (weak induction/inhibition (< 50% of estradiol maximum induction; < 50% decrease in induction of 3 pM E2))”. Also, the “Cytotoxicity LOEC” value in the series with T47D.Luc cells was found to be 40 µM.
As for `Clc1ccc(-c2cc(Cl)c(Cl)cc2Cl)c(Cl)c1` [PCB 99, 2,2′,4,4′,5-Pentachlorobiphenyl], on estrogen receptor (ER) [1], the “ER-activated activity IEC (induction equivalency concentration)” value is “WI (key: NI: no significant induction/inhibition; WI: weak induction/inhibition (< 50% of estradiol maximum induction)”; the “ER-mediated activity (induction of ER-dependent luciferase activity), in words” value (from here on “ER-mediated activity”) is listed as “only partial ER agonists; also recorded: induced the ER-mediated activity”; the “ER-activated activity IEF (induction equivalency factor)” value was “WI (weak induction/inhibition (< 50% of estradiol maximum induction)”. Besides, the “Cytotoxicity LOEC” value in the series on T47D.Luc cells was > 40 µM.
For the molecule `Clc1cccc(Cl)c1-c1c(Cl)cccc1Cl` [PCB 54, 2,2′,6,6′-Tetrachlorobiphenyl], in the series on MCF-7 cells [3], the “Estrogenicity in the MCF-7 cell focus assay” value is “estrogenic”. Also, the “Estrogenicity in the rat uterotrophic assay” value with rat uterus was “estrogenic”.
A word on the EC50: it is the concentration at which the effect is half-maximal. Lower therefore signals greater potency. For `Clc1ccc(-c2cc(Cl)c(Cl)cc2Cl)cc1` [PCB 74, 2,4,4′,5-Tetrachlorobiphenyl], at estrogen receptor (ER) [1], the EC50 was determined as 17 µM and the “ER-mediated activity” value was “significant ER-mediated activity; also recorded: induced the ER-mediated activity”. Further, the “Cytotoxicity LOEC” value in the series on T47D.Luc cells was > 40 µM.
The IC50 is the concentration needed to halve the response being measured. With `Clc1cc(-c2cc(Cl)c(Cl)c(Cl)c2Cl)c(Cl)c(Cl)c1Cl` [PCB 194, 2,2′,3,3′,4,4′,5,5′-Octachlorobiphenyl], the “ER-mediated activity” value at estrogen receptor (ER) [1] is “did not induce”. Also, on estrogen receptor (ER) [2], the IC50 was found to be 14.1 µM and the “Effect on E2-induced luciferase activity (antiestrogenicity), in words” value (“Effect on E2-induced luciferase activity” below) is “significantly decreased”. Moreover, the “Cytotoxicity LOEC” value with T47D.Luc cells is 25 µM.
On the same counts, the results for `Clc1cc(Cl)c(-c2c(Cl)c(Cl)c(Cl)c(Cl)c2Cl)cc1Cl` [PCB 203, 2,2′,3,4,4′,5,5′,6-Octachlorobiphenyl] are “did not induce”, 3.2 µM, “significantly decreased” and 20 µM.
On the same counts, the results for `Clc1cc(Cl)c(-c2c(Cl)c(Cl)cc(Cl)c2Cl)c(Cl)c1Cl` [PCB 199, 2,2′,3,3′,4′,5,6,6′-Octachlorobiphenyl] are “did not induce”, 2.85 µM, “significantly decreased” and 20 µM.
Turning to `Clc1ccc(-c2ccc(Cl)c(Cl)c2)cc1Cl` [PCB 77, 3,3′,4,4′-tetrachlorobiphenyl], in the series with BG1LucE2 cells, the “ER-mediated (estrogenic) activity” value is given as “no ER-mediated activity”.
In the case of `Clc1ccc(-c2cc(Cl)c(Cl)c(Cl)c2Cl)c(Cl)c1Cl` [PCB 170, 2,2′,3,3′,4,4′,5-Heptachlorobiphenyl], at estrogen receptor (ER) [1], the “ER-mediated activity” value was “did not induce”. At estrogen receptor (ER) [2], the IC50 turned out to be 16 µM and the “Effect on E2-induced luciferase activity” value is “significantly decreased”. In addition, the “Cytotoxicity LOEC” value with T47D.Luc cells amounted to 25 µM.
As to `Clc1ccc(-c2cc(Cl)c(Cl)c(Cl)c2)cc1Cl` [PCB 126, 3,3′,4,4′,5-Pentachlorobiphenyl], the “Effect on E2-induced luciferase activity” value at estrogen receptor (ER) [2] is “not elicited”. The “Cytotoxicity LOEC” value in the series on T47D.Luc cells was > 40 µM.
Consider `Clc1cc(Cl)c(-c2cc(Cl)c(Cl)c(Cl)c2Cl)cc1Cl` [PCB 180, 2,2′,3,4,4′,5,5′-Heptachlorobiphenyl], for which, at estrogen receptor (ER) [1], the “ER-mediated activity” value is reported as “did not induce”. Further, in the series with MCF-7 cells [4], the “Antiestrogenic effects in reporter gene and cell proliferation MCF-7 assays” value is listed as “Antiestrogenic effects”. For the same molecule, on estrogen receptor (ER) [2], the IC50 amounted to 9.32 µM and the “Effect on E2-induced luciferase activity” value is recorded as “significantly decreased”. The “Cytotoxicity LOEC” value with T47D.Luc cells was found to be 20 µM.
`Clc1ccc(Cl)c(-c2cc(Cl)ccc2Cl)c1` [PCB 52, 2,2′,5,5′-Tetrachlorobiphenyl]: at estrogen receptor (ER) [1], a half-maximal effect (EC50) was put at 9.52 µM and the “ER-mediated activity” value is on record as “significant ER-mediated activity; also recorded: induced the ER-mediated activity”. Also, the “Effect of co-treatment on ER activation by E2, in words” value at estrogen receptor (ER) [2] was “potentiated”. Also, the “Cytotoxicity LOEC” value in the series on T47D.Luc cells was > 20 µM.
`Clc1ccc(-c2ccc(Cl)c(Cl)c2)c(Cl)c1` [PCB 66, 2,3′,4,4′-Tetrachlorobiphenyl]: on estrogen receptor (ER) [1], the EC50 was determined as 24.3 µM and the “ER-mediated activity” value is given as “significant ER-mediated activity; also recorded: induced the ER-mediated activity”. In addition, the “ER-mediated (estrogenic) activity” value with BG1LucE2 cells is reported as “estrogenic”. Also, the “Cytotoxicity LOEC” value in the series with T47D.Luc cells is > 40 µM.
Consider `Clc1ccc(-c2ccc(Cl)c(Cl)c2Cl)cc1Cl` [PCB 105, 2,3,3′,4,4′-Pentachlorobiphenyl], for which, at estrogen receptor (ER) [1], the “ER-activated activity IEC (induction equivalency concentration)” value was “WI (key: NI: no significant induction/inhibition; WI: weak induction/inhibition (< 50% of estradiol maximum induction)”; the “ER-mediated activity” value is on record as “only partial ER agonists; also recorded: induced the ER-mediated activity”; the “ER-activated activity IEF (induction equivalency factor)” value is listed as “WI (weak induction/inhibition (< 50% of estradiol maximum induction)”. Moreover, the “Cytotoxicity LOEC” value with T47D.Luc cells was > 40 µM.
Consider `Clc1ccc(-c2ccc(Cl)cc2Cl)cc1` [PCB 28, 2,4,4′-Trichlorobiphenyl], for which, at estrogen receptor (ER) [1], the EC50 amounted to 8.23 µM and the “ER-mediated activity” value was “significant ER-mediated activity; also recorded: induced the ER-mediated activity”. For the same molecule, the “Effect of co-treatment on ER activation by E2, in words” value on estrogen receptor (ER) [2] is “potentiated”. In addition, in the series on T47D.Luc cells, the “Cytotoxicity LOEC” value is > 20 µM.
As to `Clc1cc(Cl)c(-c2ccc(Cl)c(Cl)c2Cl)cc1Cl` [PCB 138, 2,2′,3,4,4′,5′-Hexachlorobiphenyl], on estrogen receptor (ER) [1], the “ER-mediated activity” value was “did not induce”. Also, in the series with MCF-7 cells [4], the “Antiestrogenic effects in reporter gene and cell proliferation MCF-7 assays” value is “Antiestrogenic effects”. At estrogen receptor (ER) [2], the IC50 came out at 10.1 µM and the “Effect on E2-induced luciferase activity” value is listed as “significantly decreased”. Also, the “Cytotoxicity LOEC” value with T47D.Luc cells was found to be 20 µM.
